Experimental data reported in US10550102B2, “Indane and indoline derivatives and the use thereof as soluble guanylate cyclase activators” (NOVARTIS AG, priority 2014, dated 2020).

The compounds below were run against soluble guanylate cyclase (human GUCYA3 and GUCYB3) overexpressed in CHO cells (Homo sapiens (Human), UniProt Q02108+Q02153) (assay: CHO cellular assay (cGMP production, Cisbio cGMP HTRF kit)). Details: CHO GUCY clone 8E10, cGMP production, assay buffer with 1 mM IBMX and 20 uM ODQ, 1 h room temperature; minimum quantification limit 0.5 nM (listed 0.5 nM means ≤0.5 nM); read-out: EC50.
Sequence of soluble guanylate cyclase (human GUCYA3 and GUCYB3) overexpressed in CHO cells (Q02108 whole entry partner): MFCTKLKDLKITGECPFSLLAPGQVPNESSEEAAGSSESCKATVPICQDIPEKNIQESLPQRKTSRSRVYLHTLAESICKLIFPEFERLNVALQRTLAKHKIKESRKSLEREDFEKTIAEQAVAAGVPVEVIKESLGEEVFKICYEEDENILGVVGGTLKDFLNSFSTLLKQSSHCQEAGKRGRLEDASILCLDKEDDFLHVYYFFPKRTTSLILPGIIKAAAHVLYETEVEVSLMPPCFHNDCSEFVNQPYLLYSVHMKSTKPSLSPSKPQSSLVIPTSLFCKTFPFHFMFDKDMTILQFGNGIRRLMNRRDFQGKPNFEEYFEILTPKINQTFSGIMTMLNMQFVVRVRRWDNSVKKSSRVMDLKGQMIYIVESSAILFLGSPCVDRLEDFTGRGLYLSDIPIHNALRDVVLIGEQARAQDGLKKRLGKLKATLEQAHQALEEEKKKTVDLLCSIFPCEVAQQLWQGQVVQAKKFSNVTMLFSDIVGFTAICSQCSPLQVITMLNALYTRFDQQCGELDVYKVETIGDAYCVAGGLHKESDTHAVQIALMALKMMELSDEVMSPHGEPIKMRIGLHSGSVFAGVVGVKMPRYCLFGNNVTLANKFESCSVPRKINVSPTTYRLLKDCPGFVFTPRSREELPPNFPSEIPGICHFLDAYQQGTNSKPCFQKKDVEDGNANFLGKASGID
Sequence of soluble guanylate cyclase (human GUCYA3 and GUCYB3) overexpressed in CHO cells (Q02153 whole entry): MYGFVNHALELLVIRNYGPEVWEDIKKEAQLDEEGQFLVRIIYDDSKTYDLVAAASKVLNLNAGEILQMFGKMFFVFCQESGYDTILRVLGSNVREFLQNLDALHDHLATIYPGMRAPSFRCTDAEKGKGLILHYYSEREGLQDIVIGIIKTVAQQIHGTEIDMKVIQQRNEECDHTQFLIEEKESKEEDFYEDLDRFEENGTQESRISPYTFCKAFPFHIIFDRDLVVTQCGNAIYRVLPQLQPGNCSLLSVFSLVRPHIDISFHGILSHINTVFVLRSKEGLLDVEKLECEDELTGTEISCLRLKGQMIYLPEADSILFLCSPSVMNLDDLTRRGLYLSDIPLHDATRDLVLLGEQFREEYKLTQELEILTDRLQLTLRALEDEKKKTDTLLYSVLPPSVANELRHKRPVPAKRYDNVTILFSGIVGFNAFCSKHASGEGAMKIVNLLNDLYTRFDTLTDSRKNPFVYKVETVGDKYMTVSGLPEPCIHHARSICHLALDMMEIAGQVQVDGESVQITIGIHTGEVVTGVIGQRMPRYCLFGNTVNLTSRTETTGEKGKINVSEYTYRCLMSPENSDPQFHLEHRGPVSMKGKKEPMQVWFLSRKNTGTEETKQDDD
Type: cell-based
Excerpt: Chinese hamster ovary (CHO) cells overexpressing soluble guanylate cyclase were generated to test the effect of sGC activators in a cellular context. Human cDNAs for GUCYA3 (RefSeq: NM_000856.3) and GUCYB3 (RefSeq: NM_000857.1) were amplified by PCR from a HUVEC (Human Umbilical Vein Endothelial Cells) cDNA library and cloned into mammalian expression vectors. CHO K1 cells (ATCC CCL-61) were transfected using Lipofectamine 2000 following manufacturer's instructions and stably expressing clones were identified by antibiotic selection. CHO GUCY clone 8E10 was used for subsequent experiments. Cells were seeded at a density of 3000 cells/well in white 384-well proxyplates (Perkin Elmer) and incubated overnight, then the medium was removed and cells were washed with assay buffer (HBSS, 0.1% BSA. 1 mM IBMX, 20 uM ODQ). sGC activators were serially diluted in DMSO, then diluted in assay buffer prior to adding to cells (10 ul/well, final DMSO concentration 0.5%). Cells were incubated with compounds for 1 h room temperature, then assayed for cGMP production using Cisbio cGMP HTRF kit (62GM2PEC) according to manufacturer's instructions. The EC50s are calculated based on the amount of cGMP interpolated from the standard curve, using a 4-parameter sigmoidal dose-response.

SMILES | EC50
Cc1cc(C2CCN(C(=O)CC3CC3)CC2)c(F)cc1NC1CCc2cccc(-c3cccc(-n4ncc(C(=O)O)c4C)n3)c21 (single isomer, unassigned; (+)) [(+)-46-5, (+)-1-(6-(3-((4-(1-(2-Cyclopropylacetyl)piperidin-4-yl)-5-fluoro-2-methylphenyl)amino)-2,3-dihydro-1H-inden-4-yl)pyridin-2-yl)-5-methyl-1H-pyrazole-4-carboxylic acid] | 1 nM
CCc1cc(NC2CCc3cccc(-c4cccc(-n5ncc(C(=O)O)c5C)n4)c32)ccc1C1CCN(C(=O)C2CC2)CC1 (single isomer, unassigned; (+)) [(+)-46-6] | ≤ 0.5 nM
CCOC(=O)N1CCC(c2ccc(NC3CCc4cccc(-c5cccc(-n6ncc(C(=O)O)c6CC)n5)c43)cc2CC)CC1 (single isomer, unassigned; (+)) [(+)-52-1] | ≤ 0.5 nM
CCc1cc(NC2CCc3cccc(-c4cccc(-n5ncc(C(=O)O)c5CC)n4)c32)ccc1C1CCN(C(=O)OC)CC1 (single isomer, unassigned; (+)) [(+)-52-2, (+)-5-Ethyl-1-(6-(3-((3-ethyl-4-(1-(methoxycarbonyl)piperidin-4-yl)phenyl)amino)-2,3-dihydro-1H-inden-4-yl)pyridin-2-yl)-1H-pyrazole-4-carboxylic acid] | ≤ 0.5 nM
C=CCOC(=O)N1CCC(c2ccc(NC3CCc4cccc(-c5cccc(-n6ncc(C(=O)O)c6CC)n5)c43)cc2CC)CC1 (single isomer, unassigned; (+)) [(+)-52-3] | ≤ 0.5 nM
CCc1cc(NC2CCc3cccc(-c4cccc(-n5ncc(C(=O)O)c5CC)n4)c32)ccc1C1CCN(C(=O)C2CC2)CC1 (single isomer, unassigned; (+)) [(+)-53-1, (+)-1-(6-(3-((4-(1-(cyclopropanecarbonyl)piperidin-4-yl)-3-ethylphenyl)amino)-2,3-dihydro-1H-inden-4-yl)pyridin-2-yl)-5-ethyl-1H-pyrazole-4-carboxylic acid] | ≤ 0.5 nM
CCc1cc(NC2CCc3cccc(-c4cccc(-n5ncc(C(=O)O)c5CC)n4)c32)ccc1C1CCN(C(=O)CC2CC2)CC1 (single isomer, unassigned; (+)) [(+)-53-2, (+)-1-(6-(3-((4-(1-(2-cyclopropylacetyl)piperidin-4-yl)-3-ethylphenyl)amino)-2,3-dihydro-1H-inden-4-yl)pyridin-2-yl)-5-ethyl-1H-pyrazole-4-carboxylic acid] | 1 nM
Cc1cc(C2CCN(C(=O)CC3CC3)CC2)cc(F)c1NC1CCc2cccc(-c3cccc(-n4ncc(C(=O)O)c4C)n3)c21 (single isomer, unassigned; (+)) [(+)-53-3, (+)-1-(6-(3-((4-(1-(2-cyclopropyacetyl)piperidin-4-yl)-2-fluoro-6-methylphenyl)amino)-2,3-dihydro-1H-inden-4-yl)pyridin-2-yl)-5-methyl-1H-pyrazole-4-carboxylic acid] | 3.5 nM
Cc1cc(C2CCN(C(=O)C3CC3)CC2)ccc1NC1CCc2cccc(-c3cccc(-n4ncc(C(=O)O)c4C(F)F)n3)c21 (single isomer, unassigned; (+)) [(+)-53-4, (+)-1-(6-(3-((4-(1-(cyclopropanecarbonyl)piperidin-4-yl)-2-methylphenyl)amino)-2,3-dihydro-1H-inden-4-yl)pyridin-2-yl)-5-(difluoromethyl)-1H-pyrazole-4-carboxylic acid] | ≤ 0.5 nM
Cc1cc(C2CCN(C(=O)C3CC3)CC2)ccc1OC1CCc2cccc(-c3cccc(-n4ncc(C(=O)O)c4C(F)(F)F)n3)c21 (single isomer, unassigned; (+)) [Example 3a, (+)-1-(6-(3-(4-(1-(cyclopropanecarbonyl)piperidin-4-yl)-2-methylphenoxy)-2,3-dihydro-1H-inden-4-yl)pyridin-2-yl)-5-(trifluoromethyl)-1H-pyrazole-4-carboxylic Acid] | 1 nM
O=C(O)c1cnn(-c2cccc(-c3cccc4c3C(Oc3ccc5c(c3)CCN(Cc3ccccn3)C5)CC4)n2)c1C(F)(F)F (single isomer, unassigned; (+)) [Example 4a, (+)-1-(6-(3-((2-(pyridin-2-ylmethyl)-1,2,3,4-tetrahydroisoquinolin-6-yl)oxy)-2,3-dihydro-1H-inden-4-yl)pyridin-2-yl)-5-(trifluoromethyl)-1H-pyrazole-4-carboxylic Acid] | 2.4 nM
Cc1cc(C2CCN(C(=O)C3CC3)CC2)ccc1NC1CCc2cccc(-c3cccc(-n4ncc(C(=O)O)c4C(F)(F)F)c3)c21 (single isomer, unassigned; (+)) [Example 6. b). (+), (+)-1-(3-(3-((4-(1-(cyclopropanecarbonyl)piperidin-4-yl)-2-methylphenyl)amino)-2,3-dihydro-1H-inden-4-yl)phenyl)-5-(trifluoromethyl)-1H-pyrazole-4-carboxylic acid] | ≤ 0.5 nM
Cc1c(C(=O)O)cnn1-c1cccc(-c2cccc3c2C(Nc2ccc(C4CCN(C(=O)C5CC5)CC4)cc2)CC3)n1 (single isomer, unassigned; (+)) [Example 9. b). (+), (+)-1-(6-(3-((4-(1-(cyclopropanecarbonyl)piperidin-4-yl)phenyl)amino)-2,3-dihydro-1H-inden-4-yl)pyridin-2-yl)-5-methyl-1H-pyrazole-4-carboxylic acid] | ≤ 0.5 nM
Cc1cc(C2CCN(C(=O)C3CC3)CC2)ccc1CC1CCc2cccc(-c3cccc(-n4ncc(C(=O)O)c4C)n3)c21 (single isomer, unassigned; (+)) [Example 37. b). (+), (+)-1-(6-(3-(4-(1-(Cyclopropanecarbonyl)piperidin-4-yl)-2-methylbenzyl)-2,3-dihydro-1H-inden-4-yl)pyridin-2-yl)-5-methyl-1H-pyrazole-4-carboxylic acid] | ≤ 0.5 nM
CCc1cc(CC2CCc3cccc(-c4cccc(-n5ncc(C(=O)O)c5CC)n4)c32)ccc1C1CCN(C(=O)[C@H](C)O)CC1 (single isomer, unassigned; (+)) [Example 39. b). (+)] | ≤ 0.5 nM
CCc1cc(CC2CCc3cccc(-c4cccc(-n5ncc(C(=O)O)c5CC)n4)c32)ccc1C1CCN(C(=O)OC)CC1 (single isomer, unassigned; (+)) [Example 41. b). (+), (+)-5-ethyl-1-(6-(3-(3-ethyl-4-(1-(methoxycarbonyl)piperidin-4-yl)benzyl)-2,3-dihydro-1H-inden-4-yl)pyridin-2-yl)-1H-pyrazole-4-carboxylic acid] | ≤ 0.5 nM
CCc1c(C(=O)O)cnn1-c1cccc(-c2cccc3c2C(Cc2ccc(C4CCN(C(=O)OC)CC4)cc2C)CC3)n1 (single isomer, unassigned; (+)) [Example 42. b). (+), (+)-5-ethyl-1-(6-(3-(4-(1-(methoxycarbonyl)piperidin-4-yl)-2-methylbenzyl)-2,3-dihydro-1H-inden-4-yl)pyridin-2-yl)-1H-pyrazole-4-carboxylic acid] | ≤ 0.5 nM

More lines, now with the values ahead:

EC50 | SMILES
≤ 0.5 nM | Cc1cc(C2CCN(C(=O)C3CC3)CC2)ccc1NC1CCc2cccc(-c3cccc(-n4ncc(C(=O)O)c4C)n3)c21 (single isomer, unassigned; (+)) [Example 7a, (+)-1-(6-(3-((4-(1-(cyclopropanecarbonyl)piperidin-4-yl)-2-methylphenyl)amino)-2,3-dihydro-1H-inden-4-yl)pyridin-2-yl)-5-methyl-1H-pyrazole-4-carboxylic acid]
≤ 0.5 nM | CCc1c(C(=O)O)cnn1-c1cccc(-c2cccc3c2C(Nc2ccc(C4CCN(C(=O)C5CC5)CC4)cc2C)CC3)n1 (single isomer, unassigned; (+)) [Example 10a]
≤ 0.5 nM | CCc1cc(CN2CC(C)c3cccc(-c4cccc(-n5ncc(C(=O)O)c5C(F)(F)F)n4)c32)ccc1C1CCN(C(=O)C2CC2)CC1 (single isomer, unassigned; (+)) [Example 19a]
1 nM | CCc1cc(CN2c3c(cccc3-c3cccc(-n4ncc(C(=O)O)c4CC)n3)CC2C)ccc1C1CCN(C(=O)C2CC2)CC1 (single isomer, unassigned; (+)) [Example 22a, (+)-1-(6-(1-(4-(1-(Cyclopropanecarbonyl)piperidin-4-yl)-3-ethylbenzyl)-2-methylindolin-7-yl)pyridin-2-yl)-6-ethyl-1H-pyrazole-4-carboxylic Acid]
≤ 0.5 nM | Cc1cc(C2CCN(C(=O)C3CC3)CC2)ccc1NC1COc2cccc(-c3cccc(-n4ncc(C(=O)O)c4C)n3)c21 (single isomer, unassigned; (+)) [Example 34a, (+)-1-(6-(3-((4-(1-(Cyclopropanecarbonyl)piperidin-4-yl)-2-methylphenyl)amino)-2,3-dihydrobenzofuran-4-yl)pyridin-2-yl)-5-methyl-1H-pyrazole-4-carboxylic Acid]
≤ 0.5 nM | Cc1cc(C2CCN(C(=O)[C@H](C)O)CC2)ccc1NC1COc2cccc(-c3cccc(-n4ncc(C(=O)O)c4C)n3)c21 (single isomer, unassigned; (+)) [Example 35a]
≤ 0.5 nM | Cc1cc(C2CCN(C(=O)C3CCC3)CC2)ccc1NC1CCc2cccc(-c3cccc(-n4ncc(C(=O)O)c4C)n3)c21 (single isomer, unassigned; (+)) [Example 45a]
≤ 0.5 nM | Cc1cc(C2CCN(C(=O)[C@H](C)O)CC2)ccc1NC1CCc2cccc(-c3cccc(-n4ncc(C(=O)O)c4C)n3)c21 (single isomer, unassigned; (+)) [Example 47a]
